The text below walks through data of ChEMBL document CHEMBL3758169, “4-Aminoindazolyl-dihydrofuro[3,4-d]pyrimidines as non-covalent inhibitors of mutant epidermal growth factor receptor tyrosine kinase” (Bioorg Med Chem Lett, 2016).

Data set [1] concerns the target MAP kinase-interacting serine/threonine-protein kinase 2 (Homo sapiens) (UniProt Q9HBH9). Kind of data set: Inhibition of MKNK2 (unknown origin) at 100 nM.
Data set [2] deals with Tyrosine-protein kinase Mer (Homo sapiens) (UniProt Q12866). The data set can be described thus: Inhibition of MER (unknown origin) at 100 nM.
In data set [3] the target is Muscle, skeletal receptor tyrosine-protein kinase (Homo sapiens) (UniProt O15146). The data set can be described thus: Inhibition of MUSK (unknown origin) at 100 nM.
Data set [4] addresses Serine/threonine-protein kinase PAK 1 (Homo sapiens) (UniProt Q13153). Kind of data set: Inhibition of PAK1 (unknown origin) at 100 nM.
For data set [5], the target named is 3-phosphoinositide-dependent protein kinase 1 (Homo sapiens) (UniProt O15530). The data set can be described thus: Inhibition of PDK1 (unknown origin) by direct binding assay at 100 nM.
The target in data set [6] is Phosphatidylinositol 4-phosphate 3-kinase C2 domain-containing subunit alpha (Homo sapiens) (UniProt O00443). The data set can be described thus: Inhibition of PI3KC2A (unknown origin) at 100 nM.
For data set [7], the target named is Phosphatidylinositol 4-phosphate 3-kinase C2 domain-containing subunit beta (Homo sapiens) (UniProt O00750). The data set can be described thus: Inhibition of PI3KC2b (unknown origin) at 100 nM.
In data set [8] the target is Protein kinase C gamma type (Homo sapiens) (UniProt P05129). Kind of data set: Inhibition of PKCgamma (unknown origin) at 100 nM.
The target of data set [9] is Serine/threonine-protein kinase D3 (Homo sapiens) (UniProt O94806). The data set can be described thus: Inhibition of PKD3 (unknown origin) at 100 nM.
In data set [10] the target is STE20-like serine/threonine-protein kinase (Homo sapiens) (UniProt Q9H2G2). Kind of data set: Inhibition of SLK (unknown origin) at 100 nM.
Data set [11] has as its target Testis-specific serine/threonine-protein kinase 1 (Homo sapiens) (UniProt Q9BXA7). Kind of data set: Inhibition of TSSK1 (unknown origin) at 100 nM.
The test system of the next data set is Rattus norvegicus. The data set can be described thus: Unbound AUC in rat at 5 mg/kg, po. Format: ADME, organism-based. To be noted: in vivo.
The target in data set [12] is Ephrin type-B receptor 4 (Homo sapiens) (UniProt P54760). The data set can be described thus: Inhibition of EPHB4 (unknown origin) at 100 nM.
Data set [13] concerns the target Vascular endothelial growth factor receptor 1 (Homo sapiens) (UniProt P17948). The data set can be described thus: Inhibition of FLT1 (unknown origin) at 100 nM.
Data set [14] addresses G protein-coupled receptor kinase 3 (Homo sapiens) (UniProt P35626). Kind of data set: Inhibition of GRK3 (unknown origin) at 100 nM.
In data set [15] the test system is Mast/stem cell growth factor receptor Kit (Homo sapiens), P10721 [V654A]. Kind of data set: Inhibition of KIT V654A mutant (unknown origin) at 100 nM.

SMILES strings stand for the structures.

Sequence of Serine/threonine-protein kinase D3 (Homo sapiens) (O94806 whole entry): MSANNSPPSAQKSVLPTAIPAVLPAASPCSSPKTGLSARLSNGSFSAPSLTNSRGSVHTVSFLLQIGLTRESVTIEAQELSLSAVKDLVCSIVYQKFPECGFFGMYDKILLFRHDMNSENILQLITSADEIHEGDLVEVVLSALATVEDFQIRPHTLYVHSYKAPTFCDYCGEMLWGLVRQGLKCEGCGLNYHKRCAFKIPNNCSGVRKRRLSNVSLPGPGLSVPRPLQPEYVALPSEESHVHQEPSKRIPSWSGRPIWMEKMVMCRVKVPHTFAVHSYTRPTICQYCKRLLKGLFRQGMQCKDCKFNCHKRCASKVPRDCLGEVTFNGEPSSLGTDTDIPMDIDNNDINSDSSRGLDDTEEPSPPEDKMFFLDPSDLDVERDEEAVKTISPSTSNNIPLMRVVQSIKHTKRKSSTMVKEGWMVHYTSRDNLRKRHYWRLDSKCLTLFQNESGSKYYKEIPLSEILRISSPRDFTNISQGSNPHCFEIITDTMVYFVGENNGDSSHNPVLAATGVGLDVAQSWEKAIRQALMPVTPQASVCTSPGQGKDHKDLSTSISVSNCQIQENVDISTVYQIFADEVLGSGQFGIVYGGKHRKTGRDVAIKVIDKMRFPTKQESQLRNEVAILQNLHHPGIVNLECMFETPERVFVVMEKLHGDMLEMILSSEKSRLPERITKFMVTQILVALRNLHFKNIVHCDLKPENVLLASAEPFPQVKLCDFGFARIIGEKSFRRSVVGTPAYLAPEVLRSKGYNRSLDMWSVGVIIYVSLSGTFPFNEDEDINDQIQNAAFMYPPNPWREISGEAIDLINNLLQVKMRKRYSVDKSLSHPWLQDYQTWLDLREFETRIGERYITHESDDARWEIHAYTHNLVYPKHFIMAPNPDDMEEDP
Sequence of Muscle, skeletal receptor tyrosine-protein kinase (Homo sapiens) (O15146 whole entry): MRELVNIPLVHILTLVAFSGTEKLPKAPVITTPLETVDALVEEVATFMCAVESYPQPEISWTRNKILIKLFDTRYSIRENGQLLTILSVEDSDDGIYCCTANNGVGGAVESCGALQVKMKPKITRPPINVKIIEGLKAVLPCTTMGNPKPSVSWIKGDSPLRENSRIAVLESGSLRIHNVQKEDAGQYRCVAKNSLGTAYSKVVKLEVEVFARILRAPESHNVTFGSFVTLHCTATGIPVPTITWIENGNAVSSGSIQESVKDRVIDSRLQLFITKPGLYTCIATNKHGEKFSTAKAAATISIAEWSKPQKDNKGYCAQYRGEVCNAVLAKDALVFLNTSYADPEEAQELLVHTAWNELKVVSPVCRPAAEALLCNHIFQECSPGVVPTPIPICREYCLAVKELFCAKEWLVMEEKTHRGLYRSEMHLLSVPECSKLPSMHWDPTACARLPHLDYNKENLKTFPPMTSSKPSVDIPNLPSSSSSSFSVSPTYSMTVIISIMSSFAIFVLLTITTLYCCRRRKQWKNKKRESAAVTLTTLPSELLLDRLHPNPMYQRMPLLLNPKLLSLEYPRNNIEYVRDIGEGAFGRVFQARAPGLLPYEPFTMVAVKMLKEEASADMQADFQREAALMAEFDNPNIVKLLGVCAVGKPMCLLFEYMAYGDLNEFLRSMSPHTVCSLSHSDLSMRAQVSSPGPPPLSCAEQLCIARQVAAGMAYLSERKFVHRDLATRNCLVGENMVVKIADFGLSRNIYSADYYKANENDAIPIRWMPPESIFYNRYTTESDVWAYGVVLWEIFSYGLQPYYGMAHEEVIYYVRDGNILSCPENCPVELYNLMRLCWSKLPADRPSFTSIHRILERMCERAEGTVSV
Sequence of MAP kinase-interacting serine/threonine-protein kinase 2 (Homo sapiens) (Q9HBH9 whole entry, looked up): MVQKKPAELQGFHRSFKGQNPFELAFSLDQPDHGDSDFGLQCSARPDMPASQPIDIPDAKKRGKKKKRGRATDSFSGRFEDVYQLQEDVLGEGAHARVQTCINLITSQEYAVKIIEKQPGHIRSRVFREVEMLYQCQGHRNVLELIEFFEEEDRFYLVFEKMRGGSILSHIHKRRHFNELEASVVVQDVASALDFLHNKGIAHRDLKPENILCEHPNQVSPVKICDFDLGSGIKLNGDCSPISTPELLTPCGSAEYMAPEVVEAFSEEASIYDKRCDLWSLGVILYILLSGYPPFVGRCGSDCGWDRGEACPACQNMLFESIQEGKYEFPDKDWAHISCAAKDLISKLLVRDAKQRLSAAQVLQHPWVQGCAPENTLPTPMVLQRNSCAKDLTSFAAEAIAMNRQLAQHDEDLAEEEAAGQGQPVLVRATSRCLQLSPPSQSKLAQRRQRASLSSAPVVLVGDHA
Sequence of STE20-like serine/threonine-protein kinase (Homo sapiens) (Q9H2G2 whole entry, looked up): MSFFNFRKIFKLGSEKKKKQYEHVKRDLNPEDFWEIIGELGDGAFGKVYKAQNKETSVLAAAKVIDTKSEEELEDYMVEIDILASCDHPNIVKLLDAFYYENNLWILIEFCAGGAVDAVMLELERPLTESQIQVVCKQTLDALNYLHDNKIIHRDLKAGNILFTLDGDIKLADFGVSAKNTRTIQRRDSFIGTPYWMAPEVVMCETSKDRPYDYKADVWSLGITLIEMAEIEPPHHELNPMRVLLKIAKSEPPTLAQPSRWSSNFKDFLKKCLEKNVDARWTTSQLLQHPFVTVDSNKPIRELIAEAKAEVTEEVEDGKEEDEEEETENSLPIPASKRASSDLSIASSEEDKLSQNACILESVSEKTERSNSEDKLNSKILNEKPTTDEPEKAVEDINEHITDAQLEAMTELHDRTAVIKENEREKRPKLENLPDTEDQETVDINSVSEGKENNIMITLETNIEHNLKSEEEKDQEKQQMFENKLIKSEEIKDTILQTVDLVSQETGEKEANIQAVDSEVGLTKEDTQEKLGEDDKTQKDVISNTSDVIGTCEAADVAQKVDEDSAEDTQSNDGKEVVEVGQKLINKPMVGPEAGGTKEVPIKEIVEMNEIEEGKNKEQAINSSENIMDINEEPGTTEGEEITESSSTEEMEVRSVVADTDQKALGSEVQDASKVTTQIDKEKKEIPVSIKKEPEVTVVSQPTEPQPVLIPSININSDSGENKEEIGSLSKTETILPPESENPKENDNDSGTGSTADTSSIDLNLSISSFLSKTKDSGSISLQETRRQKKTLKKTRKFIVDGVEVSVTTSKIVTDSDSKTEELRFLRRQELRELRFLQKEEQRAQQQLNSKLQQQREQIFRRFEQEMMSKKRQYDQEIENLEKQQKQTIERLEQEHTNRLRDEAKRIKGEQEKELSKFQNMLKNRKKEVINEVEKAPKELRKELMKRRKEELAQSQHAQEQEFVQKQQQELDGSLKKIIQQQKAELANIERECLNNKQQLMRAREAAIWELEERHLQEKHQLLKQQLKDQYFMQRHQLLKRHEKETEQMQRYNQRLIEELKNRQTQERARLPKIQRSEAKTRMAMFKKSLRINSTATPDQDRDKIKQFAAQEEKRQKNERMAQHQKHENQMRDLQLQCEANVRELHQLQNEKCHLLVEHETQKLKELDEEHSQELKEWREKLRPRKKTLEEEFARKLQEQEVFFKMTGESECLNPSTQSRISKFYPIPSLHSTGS
Sequence of Serine/threonine-protein kinase PAK 1 (Homo sapiens) (Q13153 whole entry): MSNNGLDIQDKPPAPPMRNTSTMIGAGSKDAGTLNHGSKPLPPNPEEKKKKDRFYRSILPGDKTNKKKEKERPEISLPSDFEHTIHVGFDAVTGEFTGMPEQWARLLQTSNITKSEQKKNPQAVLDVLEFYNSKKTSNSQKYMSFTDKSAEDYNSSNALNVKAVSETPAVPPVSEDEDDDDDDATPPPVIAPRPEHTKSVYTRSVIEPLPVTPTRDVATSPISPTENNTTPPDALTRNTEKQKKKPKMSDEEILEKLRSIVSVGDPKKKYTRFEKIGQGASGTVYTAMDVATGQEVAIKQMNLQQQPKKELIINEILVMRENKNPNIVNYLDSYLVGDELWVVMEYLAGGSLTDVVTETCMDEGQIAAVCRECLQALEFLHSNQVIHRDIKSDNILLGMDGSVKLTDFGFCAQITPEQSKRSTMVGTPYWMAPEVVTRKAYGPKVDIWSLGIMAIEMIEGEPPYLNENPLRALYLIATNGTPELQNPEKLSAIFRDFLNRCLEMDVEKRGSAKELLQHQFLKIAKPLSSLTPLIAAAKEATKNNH
Sequence of Testis-specific serine/threonine-protein kinase 1 (Homo sapiens) (Q9BXA7 whole entry): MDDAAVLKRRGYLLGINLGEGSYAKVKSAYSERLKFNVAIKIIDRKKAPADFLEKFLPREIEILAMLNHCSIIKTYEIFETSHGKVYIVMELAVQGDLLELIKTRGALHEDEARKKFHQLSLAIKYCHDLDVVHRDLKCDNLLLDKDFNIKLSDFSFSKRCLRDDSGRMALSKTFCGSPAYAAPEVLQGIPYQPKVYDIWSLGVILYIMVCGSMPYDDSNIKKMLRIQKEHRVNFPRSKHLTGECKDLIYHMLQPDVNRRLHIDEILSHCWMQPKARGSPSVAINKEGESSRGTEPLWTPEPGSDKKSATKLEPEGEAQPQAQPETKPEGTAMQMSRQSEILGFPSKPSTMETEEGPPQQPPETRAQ

`CC1(C)OCc2c(Nc3n[nH]c4ccccc34)nc(-c3cn[nH]c3)nc21`: the inhibition in data set [1] was -2.3%; in [2] it was 6.3%; in data set [3], 3.5%; in data set [4], -4.1%; in data set [5], -1.4%; in [6], 2.9%. In addition, the inhibition was 18.8% in data set [7]; 16.4% in data set [8]; 19% in data set [9]; 66% in data set [10]; -0.5% in data set [11]; 40.7% in data set [12]. For the same compound, the inhibition in data set [13] is 71.8%; in data set [14], -3.6%; in [15], 1.1%. In the data set on Rattus norvegicus, the fAUC stood at 0.05 µM·h.

Broadly, the inhibition is the drop in the measured response relative to a control, in per cent.
